The target in data set [1] is C-terminal peptide of p53. The data set can be described thus: Affinity of DPp53C1 to the C-terminal peptide of p53. The format is binding.
Data set [2] concerns p53 monomer (L344P) mutant. The data set can be described thus: Recruitment (enrichment index) of p53 monomer into designed peptide droplets. On the set-up: species or system human. The settings on record: 0.9–1.8 mM designed peptide, 0.1 µM Alexa488-labeled p53, 25 mM HEPES, 0.5 mM EDTA, 1 mM DTT, pH 7.0, 22 °C; ± standard error; SEM. From the text: (§1) We prepared p53 tetramer, dimer, and monomer mutants, as described previously[8],[37],[50]. For the p53 tetramer, a thermostable and cysteine-modified human p53 mutant (C124A, C135V, C141V, W146Y, C182S, V203A, R209P, C229Y, H233Y, Y234F, N235K, Y236F, T253V, N268D, C275A, C277A, and K292C) was used[50]. The dimer and monomer mutants of p53 corresponded to L344A and L344P of the tetramer sequence, respectively[8],[37]. These p53 mutants were expressed with a glutathione S-transferase (GST) tag in E. coli and purified after cleavage of the GST tag, as described previously[50],[51]. The oligomeric state of p53 mutants was confirmed using a gel filtration column (Superdex 200; GE Healthcare). p53 mutants were labeled with Atto488 (ATTO-TEC) or Alexa488 (Thermo Fisher) using maleimide chemistry and then purified using a heparin column (GE Healthcare). We prepared Alexa488-labeled FUS-MBP as described previously[37],[39].
(§2) Recruitment evaluations were performed following the method described in our previous studies[37],[41]. Solutions containing 0.9–1.8 mM designed peptides, 0.1 µM Alexa488-labeled p53 mutants or Alexa488, 25 mM HEPES, 0.5 mM EDTA, and 1 mM DTT at pH 7.0 were used. The solutions were then incubated at 22 °C for five minutes. The aforementioned microscope was used with HILO illumination. To prevent photo-bleaching of the fluorescent samples, we used a laser power of 0.15 mW. The images were acquired at 22 °C. Using the ImageJ software, we calculated the EI values of the individual droplets as follows:2 EI=Idroplet/Isolution, where Idroplet and Isolution represent the average fluorescence intensities of the individual droplets and solutions near the droplets with background substitution, respectively.

In another data set the test system is p53 tetramer. The data set is described as follows: Recruitment (enrichment index) of p53 tetramer into designed peptide droplets. On the set-up: species or system human. The settings on record: droplet interior regions, surface not included; no salt, pH 7.0.
Source text: as §1, §2

Data set [3] can be described thus: Single-molecule fluorescence tracking (HILO) of labeled molecules in their droplets. The class given is physicochemical. The settings on record: Alexa488-labeled peptide 10–100 pM in 0.9 mM non-labeled peptide droplets; 25 mM HEPES, 0.5 mM EDTA, 45 mM NaCl, 150 mg/mL dextran, pH 7.0; linear fit of MSD (4D slope). The procedure: We quantitatively characterized the liquid droplet properties of the four designed peptides and compared them with those of p53. We measured the fusion of the designed peptide droplets in the solution used for p53 droplets (Supplementary Fig. S4). In the presence of 45 mM NaCl and 150 mg/mL dextran, the fusion of droplets for the four designed peptides was observed within 0.2 s, which was much faster than that for p53 (3.7 min)[8]. This gap in the fusion period implies different intrinsic dynamic properties. We measured the movement of Alexa488-labeled peptides within non-labeled peptide droplets using single-molecule fluorescence microscopy with a highly inclined and laminated optical sheet (HILO) illumination[37],[41] (Fig. 3A). […]
Single-molecule measurements were performed following the method described in our previous studies[37],[41]. An inverted fluorescence microscope (IX-73; Olympus) with a total internal reflection fluorescence unit (IX3RFAEVAW; Olympus) was used[52],[53]. […] The fluorescence collected via the objective lens was detected using an EM-CCD camera (iXon Ultra 888, Andor). […] Images were recorded at intervals of 15–154 ms after reducing the number of observable molecules in the droplets by photobleaching within one minute. […]

For data set [4], the system named is maltose binding protein-fused FUS (FUS-MBP). The data set can be described thus: Recruitment (enrichment index) of FUS-MBP into designed peptide droplets. The settings on record: 1 mM DPp53N-GSGS-D7, 100 nM Alexa488-labeled protein, 1 mM DTT, pH 7.0. The method, then:
as §2, with “Solutions containing 0.9–1.8 mM designed peptides, 0.1 µM Alexa488-labeled p53 mutants or Alexa488, 25 mM HEPES, 0.5 mM EDTA, and 1 mM DTT at pH 7.0 were used.” left out
Fig. S10 p53 monomer is localized inside droplets of DPp53N-GSGS-D7, whereas FUS-MBP is localized in its droplet surfaces. Fluorescence images of Alexa488-labeled p53 monomer mutant (L344P) and FUS-MBP in droplet solution of non-labeled DPp53N-GSGS-D7. The solution containing 103 mM HEPES and 1 mM DTT, 100 nM Alexa488 labeled proteins, and 1 mM DPp53N-GSGS-D7 at pH 7.0 was used.
Fig. S13 Design and experimental verification of artificial PS peptides from PS protein FUS. […] (B) DIC and fluorescence images of the solution containing 4 mM FUS designed peptide and 120 mM HEPES at pH 7.0. […] (C) Fluorescence images of Alexa488-labeled FUS-MBP in non-labeled FUS-designed-peptide droplet solution. […]

What is called Kd is the free concentration of one partner at which half of the binding sites on the other are occupied at equilibrium, for simple one-to-one binding. A lower Kd goes with a tighter complex. Take DDDASQEDDD [DPp53C1]: the Kd in data set [1] stood at 10 µM.

For RRRVVQRRRRGSGSDDDDDDD [DPp53N-GSGS-D7], in data set [2], the “Enrichment index (EI) of p53 monomer (L344P) mutant in peptide droplets” value was 22.3 ± 0.7. Further, in the data set with p53 tetramer, the “Decrease of average EI of p53 tetramer relative to p53 monomer” value is on record as 10.5 fold. For the same sequence, in data set [3], the “Average diffusion coefficient (D) in own droplets” value was determined as 0.26 ± 0.01 μm^2/s. The “Average EI of FUS-MBP, fold smaller than that of p53 monomer” value in data set [4] stood at 2.2 fold.

The values above are taken from article PMC10079954, “Rational design of phase separating peptides based on phase separating protein sequence of p53” (Scientific Reports, 2023).
